From PMC8151400, “Evidence of the Involvement of a Plus-C Odorant-Binding Protein HparOBP14 in Host Plant Selection and Oviposition of the Scarab Beetle Holotrichia parallela” (Insects, 2021)
Where a name gives a salt, the structure may show the parent alone. Read-outs that look alike come from different tables or passages of the source.

Tests used:
recombinant HparOBP14 = recombinant HparOBP14 (Holotrichia parallela, UniProt A0A0G2YD86); assay: biochemical; format: binding; conditions: for binding ability with HparOBP14: 1-NPN displacement, Figure 5
Chain of recombinant HparOBP14 (A0A0G2YD86 entry or part of it): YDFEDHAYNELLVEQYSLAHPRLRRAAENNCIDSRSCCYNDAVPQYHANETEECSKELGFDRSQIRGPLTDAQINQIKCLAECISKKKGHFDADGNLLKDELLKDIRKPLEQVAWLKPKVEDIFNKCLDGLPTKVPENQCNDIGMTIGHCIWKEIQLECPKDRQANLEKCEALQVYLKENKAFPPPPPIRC
Procedure: To determine the affinity of HparOBP14 to odorant volatiles, the fluorescent displacement binding assay was carried out. A total of 27 compounds was selected, including 7 compounds from host plant (elm) volatiles, 11 compounds from organic fertilizer volatiles, and 9 compounds common in both of them. The odorant compounds (purity ≥95%) were purchased from Sigma-Aldrich. The fluorescent probe N-phenyl-1-naphthylamine (1-NPN) was dissolved in methanol (chromatographic grade) to a final concentration of 1 mM and used as the stock solution. The stock solution of the purified protein was diluted with Tris-HCl (50 mmol/L, pH 7.4) to a final concentration of 2 μM and added into a colorimetric plate cuvette. The 1-NPN stock solution was then successively added to the protein solution to the final concentrations ranging from 2 μM to 20 μM. The fluorescence changes were recorded to get K1-NPN, the dissociation constant of the complex HparOBP14/1-NPN.
The binding ability of HparOBP14 to the odorant compounds was determined by titrating the mixture of the protein and the 1-NPN (final concentration 2 μM of both) with each odorant compound at final concentrations ranging from 2 μM to 40 μM. The competitive dissociation constant was calculated from the corresponding IC50 values using the following equation: Ki = [IC50]/(1+ [1-NPN]/K1-NPN), where [1-NPN] is the free concentration of 1-NPN; K1-NPN is the dissociation constant of the complex HparOBP14/1-NPN.
The fluorescence changes during the binding of either 1-NPN or odorant compounds to the HparOBP14 protein were measured and recorded with the excitation wavelength of 337 nm and within a wavelength range of 350~550 nm by a 970CRT fluorescence spectrophotometer (Yidian Analytical Instrument Company, Shanghai, China).

[1] = test system: antennae of H. parallela female adults; assay: Electroantennogram (EAG) recording after dsRNA injection; format: in vivo, Holotrichia parallela; conditions: 20 μL of 1 μg/μL in paraffin oil; for change of EAG responsive amplitude in dsHparOBP14-injected insects compared to uninjected control: 48 h after dsHparOBP14 injection
Procedure: (§1) The dsRNAs of HparOBP14 and GFP (GenBank number: ACY56286) (for primers, see Table S1) were synthesized using a T7 Ribo MAX™ Express RNAi System (Promega, Madison, WI, USA) according to the manufacturer’s instructions. The GFP-dsRNA was used as the negative control. Nine-to-eleven-day-old female adult beetles were injected with 2 μg dsRNA into the adult head with a 5 μL injection needle (7000 series syringes, Hamilton, USA), then kept under the same condition as 2.1 described above. The antennae were dissected at 24 h, 48 h, 72 h, and 96 h after injection, and the samples were stored at −80 °C for further RT-qPCR analyses.
The EAG recording was conducted on the adult antennae with the EAG micromanipulator MP-15 and analyzed with EAG-Pro (Syntech, Kirchzarten, Germany). Briefly, two ends of the antennae were set on electrode holders with a conductive adhesive (Spectra 360 electrode gel). An ashless filter paper (Hangzhou Special Paper Co., Ltd., Hangzhou, China) was cut into strips (3 cm × 0.5 cm). A 20 μL compound solution (concentration 1 μg/μL in paraffin oil) was applied onto the paper strip which was then placed in a Pasteur tube (17 cm × […]) and applied to the antennae by purified air at a flow rate of 1 L/min. The paraffin oil (20 μL) was used as a control. The stimulus recording time was 0.5 s and the interval between two stimulations was more than 1 min.

[2] = test system: female Holotrichia parallela adults; assay: Y-tube olfactometer behavioral bioassay; format: in vivo; conditions: for change of attraction after injection of dsHparOBP14: dsHparOBP14-injected females; for behavioral response of uninjected female beetles: uninjected females, vs paraffin oil
Procedure: as §1
The Y-tube olfactometer mainly consisted of a Y-shaped glass tube (main arm, 30 cm; sidearm, 20 cm; inner diameter, 2.5 cm; side arm angle, 60 degrees), an air sampler, a drying tower, a gas scrubber, and a flow meter. Two gas-washing cylinders were successively connected with the flow meter, drying tower, air pump, and Y-shaped glass tube through rubber pipes. The testing compound (concentration 1 μg/μL in paraffin oil) and paraffin oil (as control) were taken and dropped respectively into a rubber septum (Pherobio Technology Co., Ltd., Beijing, China) and placed respectively into the side arms of the Y-tube. The flow rate of the atmospheric air sampler was adjusted to 500 mL/min.
A female adult beetle was introduced into the main arm at the downwind end of the Y-olfactometer. Each beetle was given 5 min to respond to the treatment, and the first choice that the beetle made for each of the lateral arms was recorded. The response was regarded as valid only if the beetle crawled more than 3 cm into a lateral arm and stayed for more than 1 min.
For each compound, more than 90 beetles were tested individually until 90 responsive beetles were obtained. Each individual beetle was tested only once, and the Y-olfactometer was replaced after every 10 beetles were tested to eliminate the odor effect. The number of individual beetles that selected the compound-treated arm of the Y-olfactometer was statistically compared with the number of beetles that selected the solvent-treated arm using a Chi-square goodness of fit test.

[3] = HparOBP14 and 1-NPN 2 µM each, titrated with compound 2–40 μM
[4] = HparOBP14 and 1-NPN 2 µM each, titrated with compound 2–40 μM, read-out: IC50
[5] = calculated from IC50: Ki = [IC50]/(1+[1-NPN]/K1-NPN), read-out: Ki

## CCCCCCCCCCCC=O [dodecyl aldehyde]
Recombinant HparOBP14; [3]
  Int (%): relative fluorescence intensity of 1-NPN/HparOBP14 complex after the addition of testing compound: 92.42%
Recombinant HparOBP14; [4]
  IC50: > 40 µM
Recombinant HparOBP14; [5]
  Ki: > 34.1 µM

## Cc1ccc(O)cc1 [p-cresol]
Recombinant HparOBP14
  IC50: > 40 µM
  Ki: > 34.1 µM
Recombinant HparOBP14; [3]
  Int (%): relative fluorescence intensity of 1-NPN/HparOBP14 complex after the addition of testing compound: 91.23%

## CCCCC(CC)CO (centres unmarked) [2-ethylhexanol]
Recombinant HparOBP14
  binding ability with HparOBP14: weaker, or no, binding ability
Recombinant HparOBP14; [3]
  Int (%): relative fluorescence intensity of 1-NPN/HparOBP14 complex after the addition of testing compound: 85.80%
Recombinant HparOBP14; [4]
  IC50: > 40 µM
Recombinant HparOBP14; [5]
  Ki: > 34.1 µM

## CO [methanol]
Recombinant HparOBP14; [3]
  Int (%): relative fluorescence intensity of 1-NPN/HparOBP14 complex after the addition of testing compound: 65.66%
Recombinant HparOBP14; [4]
  IC50: 32.1 µM
Recombinant HparOBP14; [5]
  Ki: 27.4 µM
[1]
  change of EAG responsive amplitude in dsHparOBP14-injected insects compared to uninjected control: decreased significantly
[2]
  change of attraction after injection of dsHparOBP14: markedly reduced
  behavioral response of uninjected female beetles: attracted

## CCCC(O)CC (centres unmarked) [3-hexanol]
Recombinant HparOBP14; [3]
  Int (%): relative fluorescence intensity of 1-NPN/HparOBP14 complex after the addition of testing compound: 84.27%
Recombinant HparOBP14; [4]
  IC50: > 40 µM
Recombinant HparOBP14; [5]
  Ki: > 34.1 µM

## C=CCc1ccc(O)c(OC)c1 [eugenol]
Recombinant HparOBP14
  IC50: > 40 µM
  Ki: > 34.1 µM
Recombinant HparOBP14; [3]
  Int (%): relative fluorescence intensity of 1-NPN/HparOBP14 complex after the addition of testing compound: 86.03%

## CCCCCCO [1-hexanol]
Recombinant HparOBP14
  IC50: > 40 µM
Recombinant HparOBP14; [3]
  Int (%): relative fluorescence intensity of 1-NPN/HparOBP14 complex after the addition of testing compound: 72.19%
Recombinant HparOBP14; [5]
  Ki: > 34.1 µM

## CCCCCCCCC=O [1-nonanal]
Recombinant HparOBP14; [3]
  Int (%): relative fluorescence intensity of 1-NPN/HparOBP14 complex after the addition of testing compound: 69.22%
Recombinant HparOBP14; [4]
  IC50: > 40 µM
Recombinant HparOBP14; [5]
  Ki: > 34.1 µM

## CC/C=C\CCO [(Z)-3-hexen-1-ol]
Recombinant HparOBP14
  IC50: > 40 µM
  Ki: > 34.1 µM
Recombinant HparOBP14; [3]
  Int (%): relative fluorescence intensity of 1-NPN/HparOBP14 complex after the addition of testing compound: 96.53%

## CCCC(=O)O [butyric acid]
Recombinant HparOBP14
  IC50: > 40 µM
  Ki: > 34.1 µM
Recombinant HparOBP14; [3]
  Int (%): relative fluorescence intensity of 1-NPN/HparOBP14 complex after the addition of testing compound: 99.07%

## C=C1CC/C=C(\C)CC[C@@H]2[C@@H]1CC2(C)C [β-caryophyllen]
Recombinant HparOBP14; [4]
  IC50: > 40 µM
Recombinant HparOBP14; [5]
  Ki: > 34.1 µM

## CC/C=C\CCOC(C)=O [cis-3-hexenyl acetate]
Recombinant HparOBP14
  binding ability with HparOBP14: weaker, or no, binding ability
Recombinant HparOBP14; [3]
  Int (%): relative fluorescence intensity of 1-NPN/HparOBP14 complex after the addition of testing compound: 81.43%
Recombinant HparOBP14; [4]
  IC50: > 40 µM
Recombinant HparOBP14; [5]
  Ki: > 34.1 µM

## CCCCCCCC=O [octanal]
Recombinant HparOBP14; [4]
  IC50: > 40 µM
Recombinant HparOBP14; [5]
  Ki: > 34.1 µM

## CC1=CCC2C(C1)C2(C)C (centres unmarked) [3-carene]
Recombinant HparOBP14; [3]
  Int (%): relative fluorescence intensity of 1-NPN/HparOBP14 complex after the addition of testing compound: 68.52%
Recombinant HparOBP14; [4]
  IC50: > 40 µM
Recombinant HparOBP14; [5]
  Ki: > 34.1 µM

## c1ccc2[nH]ccc2c1 [indole]
Recombinant HparOBP14
  IC50: > 40 µM
  Ki: > 34.1 µM
Recombinant HparOBP14; [3]
  Int (%): relative fluorescence intensity of 1-NPN/HparOBP14 complex after the addition of testing compound: 82.23%

## CC(=O)CCC=C(C)C [6-methyl-5-hepten-2-one]
Recombinant HparOBP14
  IC50: 32 µM
  Ki: 28.2 µM
Recombinant HparOBP14; [3]
  Int (%): relative fluorescence intensity of 1-NPN/HparOBP14 complex after the addition of testing compound: 61.66%
[1]
  change of EAG responsive amplitude in dsHparOBP14-injected insects compared to uninjected control: do not change significantly
[1]; female adults
  EAG response: clear responses
[2]
  change of attraction after injection of dsHparOBP14: significantly increased
  behavioral response of uninjected female beetles: attracted

## C=CC(C)(O)CCC=C(C)C (centres unmarked) [linalool]
Recombinant HparOBP14
  IC50: > 40 µM
  Ki: > 34.1 µM
  binding ability with HparOBP14: weaker, or no, binding ability
Recombinant HparOBP14; [3]
  Int (%): relative fluorescence intensity of 1-NPN/HparOBP14 complex after the addition of testing compound: 89.20%

## C=C1C2CCC(C2)C1(C)C (centres unmarked) [camphene]
Recombinant HparOBP14; [3]
  Int (%): relative fluorescence intensity of 1-NPN/HparOBP14 complex after the addition of testing compound: 83.88%
Recombinant HparOBP14; [4]
  IC50: > 40 µM
Recombinant HparOBP14; [5]
  Ki: > 34.1 µM

## CC1=CC[C@H](C(C)C)C=C1 (racemic) [α-phellandrene]
Recombinant HparOBP14
  IC50: > 40 µM
  Ki: > 34.1 µM
  binding ability with HparOBP14: weaker, or no, binding ability
Recombinant HparOBP14; [3]
  Int (%): relative fluorescence intensity of 1-NPN/HparOBP14 complex after the addition of testing compound: 83.00%

## CCCCCCCO [1-heptanol]
Recombinant HparOBP14
  IC50: > 40 µM
Recombinant HparOBP14; [3]
  Int (%): relative fluorescence intensity of 1-NPN/HparOBP14 complex after the addition of testing compound: 83.41%
Recombinant HparOBP14; [5]
  Ki: > 34.1 µM

## CCCCCCCCCC=O [decanal]
Recombinant HparOBP14; [3]
  Int (%): relative fluorescence intensity of 1-NPN/HparOBP14 complex after the addition of testing compound: 77.88%
Recombinant HparOBP14; [4]
  IC50: > 40 µM
Recombinant HparOBP14; [5]
  Ki: > 34.1 µM

## Cc1ccc(C(C)C)cc1 [p-cymene]
Recombinant HparOBP14
  IC50: 29.9 µM
  Ki: 25.5 µM
Recombinant HparOBP14; [3]
  Int (%): relative fluorescence intensity of 1-NPN/HparOBP14 complex after the addition of testing compound: 62.70%
[1]
  change of EAG responsive amplitude in dsHparOBP14-injected insects compared to uninjected control: decreased significantly
[2]
  change of attraction after injection of dsHparOBP14: no obvious change
  behavioral response of uninjected female beetles: attracted

## CC(C)=CCC/C(C)=C/CO [geraniol]
Recombinant HparOBP14
  IC50: 40 µM
  Ki: 34.1 µM
Recombinant HparOBP14; [3]
  Int (%): relative fluorescence intensity of 1-NPN/HparOBP14 complex after the addition of testing compound: 72.07%
[1]
  change of EAG responsive amplitude in dsHparOBP14-injected insects compared to uninjected control: decreased significantly
[2]
  change of attraction after injection of dsHparOBP14: markedly reduced
  behavioral response of uninjected female beetles: attracted

## C=O [formaldehyde]
Recombinant HparOBP14; [3]
  Int (%): relative fluorescence intensity of 1-NPN/HparOBP14 complex after the addition of testing compound: 68.91%
Recombinant HparOBP14; [4]
  IC50: 34.6 µM
Recombinant HparOBP14; [5]
  Ki: 29.5 µM
[1]
  change of EAG responsive amplitude in dsHparOBP14-injected insects compared to uninjected control: decreased significantly
[2]
  change of attraction after injection of dsHparOBP14: no obvious change
  behavioral response of uninjected female beetles: attracted

## c1ccc(Nc2cccc3ccccc23)cc1 [1-NPN, N-phenyl-1-naphthylamine, reference compound]
Recombinant HparOBP14
  Kd: 5.8 µM

## CC/C=C\CCOC=O [cis-3-hexenyl formate]
Recombinant HparOBP14
  binding ability with HparOBP14: weaker, or no, binding ability
Recombinant HparOBP14; [3]
  Int (%): relative fluorescence intensity of 1-NPN/HparOBP14 complex after the addition of testing compound: 81.25%
Recombinant HparOBP14; [4]
  IC50: > 40 µM
Recombinant HparOBP14; [5]
  Ki: > 34.1 µM
